Laboratory results taken from patent publication US11691980B2, “Liphagal analog and multi-targeted kinase inhibitor containing liphagal or analog thereof” (TOHOKU UNIVERSITY, priority 2017, dated 2023).

How the values were obtained:
Format in all cases: biochemical
[1] = biological target: T1, FAK (Homo sapiens, UniProt Q05397); test: mobility shift assay
T1 construct: purchased Carna Biosciences

[2] = biological target: T2, PKN1 (Homo sapiens, UniProt Q16512); test: IMAP Assay
T2 construct: purchased Carna Biosciences

[3] = biological target: T3, CK2α2/β (Homo sapiens, UniProt P19784); test: mobility shift assay
T3 construct: purchased Carna Biosciences

[4] = biological target: T4, BRSK2 (Homo sapiens, UniProt Q8IWQ3); test: mobility shift assay
T4 construct: purchased Carna Biosciences

[5] = biological target: T5, AMFKα2/β1/γ1 (Homo sapiens, UniProt P54646); test: mobility shift assay
T5 construct: purchased Carna Biosciences
T5 sequence (P54646 whole entry): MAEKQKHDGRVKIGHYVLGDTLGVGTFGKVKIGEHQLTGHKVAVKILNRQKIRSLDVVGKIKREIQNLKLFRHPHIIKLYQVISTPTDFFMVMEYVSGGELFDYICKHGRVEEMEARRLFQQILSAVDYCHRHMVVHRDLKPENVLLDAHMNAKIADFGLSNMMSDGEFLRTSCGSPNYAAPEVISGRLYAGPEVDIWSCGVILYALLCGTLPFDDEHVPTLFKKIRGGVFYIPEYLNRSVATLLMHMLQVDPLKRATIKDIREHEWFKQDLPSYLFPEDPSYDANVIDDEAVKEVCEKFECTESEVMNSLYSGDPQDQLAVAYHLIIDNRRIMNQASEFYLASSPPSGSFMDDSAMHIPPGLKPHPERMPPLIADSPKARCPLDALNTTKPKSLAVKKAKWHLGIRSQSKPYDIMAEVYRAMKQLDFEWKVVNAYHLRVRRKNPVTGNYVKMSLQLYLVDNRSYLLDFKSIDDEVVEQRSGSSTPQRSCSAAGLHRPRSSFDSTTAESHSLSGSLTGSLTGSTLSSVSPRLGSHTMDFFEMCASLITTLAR
T5 sequence (Q9Y478 whole entry partner): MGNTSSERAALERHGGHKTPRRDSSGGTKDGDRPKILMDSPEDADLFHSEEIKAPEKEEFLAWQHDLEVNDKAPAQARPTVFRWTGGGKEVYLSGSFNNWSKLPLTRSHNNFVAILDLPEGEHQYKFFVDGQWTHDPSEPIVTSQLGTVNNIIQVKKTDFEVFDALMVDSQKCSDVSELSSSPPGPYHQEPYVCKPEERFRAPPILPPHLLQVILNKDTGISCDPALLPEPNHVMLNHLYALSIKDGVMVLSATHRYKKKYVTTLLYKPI
T5 sequence (P54619 whole entry partner): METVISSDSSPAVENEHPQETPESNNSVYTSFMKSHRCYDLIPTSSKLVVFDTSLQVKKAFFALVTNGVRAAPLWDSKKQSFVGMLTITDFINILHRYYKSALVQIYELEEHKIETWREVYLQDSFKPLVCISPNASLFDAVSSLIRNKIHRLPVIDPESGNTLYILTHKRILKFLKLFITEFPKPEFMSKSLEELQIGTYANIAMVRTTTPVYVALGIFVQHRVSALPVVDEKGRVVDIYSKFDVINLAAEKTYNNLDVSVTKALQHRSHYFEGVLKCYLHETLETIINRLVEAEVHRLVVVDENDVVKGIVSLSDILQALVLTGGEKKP

[6] = biological target: T6, EML4-ALK (Homo sapiens, UniProt Q9UM73); test: mobility shift assay
T6 construct: EML4 (fusion partner, Q9HC35); purchased Carna Biosciences; the other entry of the earlier key: EML4 (Q9HC35, Echinoderm microtubule-associated protein-like 4)

[7] = biological target: T7, MLK1_Cascade (Homo sapiens, UniProt P80192); test: mobility shift assay
T7 construct: purchased Carna Biosciences

[8] = biological target: T8, AurC (Homo sapiens, UniProt Q9UQB9); test: mobility shift assay
T8 construct: purchased Carna Biosciences

[9] = biological target: T9, NDR2 (Homo sapiens, UniProt Q9Y2H1); test: mobility shift assay
T9 construct: purchased Carna Biosciences

[10] = biological target: T10, EPHA6 (Homo sapiens, UniProt Q9UF33); test: mobility shift assay
T10 construct: purchased Carna Biosciences

[11] = biological target: T11, HER2 (Homo sapiens, UniProt P04626); test: mobility shift assay
T11 construct: purchased Carna Biosciences

[12] = biological target: T12, MAP3K2_Cascade (Homo sapiens, UniProt Q9Y2U5); test: mobility shift assay
T12 construct: purchased Carna Biosciences
T12 sequence (Q9Y2U5 whole entry): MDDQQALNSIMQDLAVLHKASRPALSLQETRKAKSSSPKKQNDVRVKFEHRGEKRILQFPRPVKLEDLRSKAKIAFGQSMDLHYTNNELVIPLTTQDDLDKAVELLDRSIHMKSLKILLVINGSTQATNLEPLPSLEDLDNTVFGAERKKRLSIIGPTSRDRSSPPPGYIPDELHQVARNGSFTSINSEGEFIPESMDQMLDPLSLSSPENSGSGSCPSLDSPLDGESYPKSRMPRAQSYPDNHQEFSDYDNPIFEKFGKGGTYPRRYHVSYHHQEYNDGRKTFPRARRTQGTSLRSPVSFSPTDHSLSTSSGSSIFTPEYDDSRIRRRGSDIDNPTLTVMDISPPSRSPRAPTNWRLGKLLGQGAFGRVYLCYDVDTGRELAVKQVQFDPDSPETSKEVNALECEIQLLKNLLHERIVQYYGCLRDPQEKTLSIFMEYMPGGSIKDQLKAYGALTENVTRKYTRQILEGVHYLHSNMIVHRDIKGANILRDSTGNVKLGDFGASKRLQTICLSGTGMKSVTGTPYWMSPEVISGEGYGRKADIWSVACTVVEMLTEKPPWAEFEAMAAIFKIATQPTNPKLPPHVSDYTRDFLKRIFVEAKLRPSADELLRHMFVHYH

[13] = biological target: T13, MOS_Cascade (Homo sapiens, UniProt P00540); test: mobility shift assay
T13 construct: purchased Carna Biosciences

[14] = biological target: PIK3CA/PIK3R1 (Homo sapiens, UniProt P42336); test: mobility shift assay; parameters: purchased Carna Biosciences
Chain of PIK3CA/PIK3R1 (P42336 whole entry): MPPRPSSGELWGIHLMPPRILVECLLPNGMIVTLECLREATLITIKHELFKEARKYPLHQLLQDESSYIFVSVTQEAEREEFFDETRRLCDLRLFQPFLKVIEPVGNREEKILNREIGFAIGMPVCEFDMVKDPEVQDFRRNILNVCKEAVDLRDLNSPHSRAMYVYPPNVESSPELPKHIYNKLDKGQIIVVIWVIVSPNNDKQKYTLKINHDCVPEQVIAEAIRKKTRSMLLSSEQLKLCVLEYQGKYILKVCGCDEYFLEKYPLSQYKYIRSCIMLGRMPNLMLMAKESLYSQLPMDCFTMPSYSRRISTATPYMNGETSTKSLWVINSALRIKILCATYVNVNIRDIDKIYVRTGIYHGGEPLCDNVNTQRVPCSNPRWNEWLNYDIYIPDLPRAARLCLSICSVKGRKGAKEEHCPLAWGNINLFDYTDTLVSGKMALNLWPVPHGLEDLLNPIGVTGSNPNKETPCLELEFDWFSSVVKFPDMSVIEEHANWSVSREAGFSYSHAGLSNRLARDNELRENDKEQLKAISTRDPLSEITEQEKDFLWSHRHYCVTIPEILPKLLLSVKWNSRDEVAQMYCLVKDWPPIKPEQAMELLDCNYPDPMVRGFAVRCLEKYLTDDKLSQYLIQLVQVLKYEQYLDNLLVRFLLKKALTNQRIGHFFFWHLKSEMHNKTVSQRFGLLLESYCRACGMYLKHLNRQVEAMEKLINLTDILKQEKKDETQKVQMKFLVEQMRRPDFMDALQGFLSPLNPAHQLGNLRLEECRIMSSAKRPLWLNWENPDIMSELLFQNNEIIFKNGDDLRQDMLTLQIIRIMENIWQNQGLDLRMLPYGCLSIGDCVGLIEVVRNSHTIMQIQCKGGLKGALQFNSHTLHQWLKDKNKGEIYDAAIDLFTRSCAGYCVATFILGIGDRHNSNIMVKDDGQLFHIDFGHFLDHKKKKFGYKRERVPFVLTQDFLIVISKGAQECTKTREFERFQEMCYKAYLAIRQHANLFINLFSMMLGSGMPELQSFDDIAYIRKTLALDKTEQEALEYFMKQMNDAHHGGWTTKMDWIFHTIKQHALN
Chain of PIK3CA/PIK3R1 (P27986 whole entry partner): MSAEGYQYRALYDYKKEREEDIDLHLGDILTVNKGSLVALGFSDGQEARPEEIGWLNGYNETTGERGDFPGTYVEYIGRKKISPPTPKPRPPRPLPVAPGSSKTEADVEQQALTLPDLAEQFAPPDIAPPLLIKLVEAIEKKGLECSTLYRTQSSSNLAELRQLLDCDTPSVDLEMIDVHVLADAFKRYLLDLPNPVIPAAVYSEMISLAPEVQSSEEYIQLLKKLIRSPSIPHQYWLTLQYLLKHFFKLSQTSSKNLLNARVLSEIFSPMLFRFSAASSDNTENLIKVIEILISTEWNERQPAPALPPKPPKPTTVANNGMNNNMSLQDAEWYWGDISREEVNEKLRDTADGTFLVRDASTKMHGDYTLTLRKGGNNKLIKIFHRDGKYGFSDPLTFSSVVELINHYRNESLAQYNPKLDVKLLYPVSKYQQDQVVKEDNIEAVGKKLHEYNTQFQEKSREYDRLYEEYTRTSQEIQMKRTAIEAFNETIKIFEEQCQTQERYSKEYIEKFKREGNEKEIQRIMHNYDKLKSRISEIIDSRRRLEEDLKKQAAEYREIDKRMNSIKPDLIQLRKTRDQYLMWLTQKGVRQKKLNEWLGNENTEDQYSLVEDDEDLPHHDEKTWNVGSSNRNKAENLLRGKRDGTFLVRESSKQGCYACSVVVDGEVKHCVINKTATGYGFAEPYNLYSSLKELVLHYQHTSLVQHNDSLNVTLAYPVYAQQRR
Protocol: LG-1 (liphgal) at 10 μM was assessed for its inhibitory activity against 313 kinds of kinases by mobility shift assay or IMAP Assay™ (Carna Biosciences). Specifically, the assessment was performed by the IMAP Assay™ (Carna Biosciences) for SPRK1, PLK2, PKR, PKN1, PEK, IRAK1, and EKKα among the 313 kinds of kinases, and the assessment was performed by the mobility shift assay for all the other kinases. Inhibitory activity (% inhibition) against each kinase is represented by the size of a bubble on a protein kinase phylogenetic tree of FIG. 2.

[15] = biological target: T14, p70S6K (Homo sapiens, UniProt P23443); test: mobility shift assay
T14 construct: purchased Carna Biosciences

[16] = biological target: T15, RET(Y791F) (Homo sapiens, UniProt P07949, Y791F); test: mobility shift assay
T15 construct: purchased Carna Biosciences

[17] = biological target: T16, TYK2 (Homo sapiens, UniProt P29597); test: mobility shift assay
T16 construct: purchased Carna Biosciences

[18] = biological target: T17, DAPK1 (Homo sapiens, UniProt P53355); test: mobility shift assay
T17 construct: purchased Carna Biosciences

[19] = biological target: T18, YES (Homo sapiens, UniProt P07947); test: mobility shift assay
T18 construct: purchased Carna Biosciences

[20] = biological target: T19, FRK (Homo sapiens, UniProt P42685); test: mobility shift assay
T19 construct: purchased Carna Biosciences

[21] = biological target: T20, MLK2_Cascade (Homo sapiens, UniProt Q02779); test: mobility shift assay
T20 construct: purchased Carna Biosciences

[22] = biological target: T21, ROS (Homo sapiens, UniProt P08922); test: mobility shift assay
T21 construct: purchased Carna Biosciences

[23] = biological target: T22, HGK (Homo sapiens, UniProt O95819); test: mobility shift assay
T22 construct: purchased Carna Biosciences
T22 sequence (O95819 whole entry): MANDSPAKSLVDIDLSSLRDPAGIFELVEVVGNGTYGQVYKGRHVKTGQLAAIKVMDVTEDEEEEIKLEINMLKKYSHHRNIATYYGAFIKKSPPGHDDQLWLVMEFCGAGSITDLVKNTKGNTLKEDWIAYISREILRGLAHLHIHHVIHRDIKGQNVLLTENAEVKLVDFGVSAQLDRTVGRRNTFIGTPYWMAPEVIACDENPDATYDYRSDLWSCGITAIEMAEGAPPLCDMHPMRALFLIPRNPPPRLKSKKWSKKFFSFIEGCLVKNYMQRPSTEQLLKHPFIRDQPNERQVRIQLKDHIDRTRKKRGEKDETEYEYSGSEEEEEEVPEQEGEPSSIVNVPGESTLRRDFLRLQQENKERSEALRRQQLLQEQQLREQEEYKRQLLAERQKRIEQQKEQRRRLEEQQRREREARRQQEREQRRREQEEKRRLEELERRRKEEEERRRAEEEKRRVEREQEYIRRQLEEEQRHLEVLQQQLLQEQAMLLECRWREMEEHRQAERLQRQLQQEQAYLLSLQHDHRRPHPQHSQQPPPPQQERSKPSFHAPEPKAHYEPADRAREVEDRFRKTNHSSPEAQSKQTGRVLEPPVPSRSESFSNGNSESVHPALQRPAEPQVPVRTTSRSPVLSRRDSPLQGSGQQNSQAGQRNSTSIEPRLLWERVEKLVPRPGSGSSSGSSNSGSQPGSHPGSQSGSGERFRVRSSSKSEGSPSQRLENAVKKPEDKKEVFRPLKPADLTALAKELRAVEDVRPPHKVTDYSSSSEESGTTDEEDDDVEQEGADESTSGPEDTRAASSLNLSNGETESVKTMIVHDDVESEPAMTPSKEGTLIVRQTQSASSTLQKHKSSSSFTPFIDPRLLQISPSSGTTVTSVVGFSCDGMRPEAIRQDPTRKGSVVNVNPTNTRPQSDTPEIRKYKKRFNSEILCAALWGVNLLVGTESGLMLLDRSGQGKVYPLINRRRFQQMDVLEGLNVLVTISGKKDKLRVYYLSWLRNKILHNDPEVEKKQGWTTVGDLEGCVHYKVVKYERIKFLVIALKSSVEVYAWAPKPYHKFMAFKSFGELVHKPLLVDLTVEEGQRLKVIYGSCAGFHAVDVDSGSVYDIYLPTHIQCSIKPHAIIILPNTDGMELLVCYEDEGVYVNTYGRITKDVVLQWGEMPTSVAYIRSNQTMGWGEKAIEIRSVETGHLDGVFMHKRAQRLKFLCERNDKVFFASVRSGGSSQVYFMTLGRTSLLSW

[24] = biological target: T23, ITK (Homo sapiens, UniProt Q08881); test: mobility shift assay
T23 construct: purchased Carna Biosciences

[25] = biological target: T24, FLT4 (Homo sapiens, UniProt P35916); test: mobility shift assay
T24 construct: purchased Carna Biosciences

[26] = biological target: T25, NEK2 (Homo sapiens, UniProt P51955); test: mobility shift assay
T25 construct: purchased Carna Biosciences

[27] = biological target: T26, PDGFRα(T674I) (Homo sapiens, UniProt P16234, T674I); test: mobility shift assay
T26 construct: purchased Carna Biosciences

[28] = biological target: T27, MET(M125DT) (Homo sapiens, UniProt P08581, M1250T); test: mobility shift assay
T27 construct: purchased Carna Biosciences

[29] = biological target: T28, PYK2 (Homo sapiens, UniProt Q14289); test: mobility shift assay
T28 construct: purchased Carna Biosciences

[30] = biological target: T29, MET(D1228H) (Homo sapiens, UniProt P08581, D1228H); test: mobility shift assay
T29 construct: purchased Carna Biosciences

[31] = biological target: T30, DYRK3 (Homo sapiens, UniProt O43781); test: mobility shift assay
T30 construct: purchased Carna Biosciences

[32] = biological target: T31, JAK1 (Homo sapiens, UniProt P23458); test: mobility shift assay
T31 construct: purchased Carna Biosciences

[33] = biological target: T32, MRCKβ (Homo sapiens, UniProt Q9Y5S2); test: mobility shift assay
T32 construct: purchased Carna Biosciences

[34] = biological target: T33, FGFR4(V550E) (Homo sapiens, UniProt P22455, V550E); test: mobility shift assay
T33 construct: purchased Carna Biosciences

[35] = biological target: T34, PDGFRβ (Homo sapiens, UniProt P09619); test: mobility shift assay
T34 construct: purchased Carna Biosciences

[36] = biological target: T35, TEC (Homo sapiens, UniProt P42680); test: mobility shift assay
T35 construct: purchased Carna Biosciences

[37] = biological target: T36, CDK5/p25 (Homo sapiens, UniProt Q00535); test: mobility shift assay
T36 construct: purchased Carna Biosciences

Q: With `C[C@@H]1CC[C@H]2C(C)(C)CCC[C@]2(C)c2c1oc1c(C=O)c(O)c(O)cc21` [LG-1, liphagal] as the compound, how does the inhibition at 10 µM [1] read?
A: Its inhibition at 10 µM is 24.5%.

Q: What about the inhibition at 10 µM [2] of the same compound?
A: The inhibition at 10 µM was 5.3%.

Q: What about the inhibition at 10 µM [3] of the same compound?
A: The inhibition at 10 µM was 9%.

Q: What about the inhibition at 10 µM [4] of the same compound?
A: Its inhibition at 10 µM is 9.3%.

Q: And the inhibition at 10 µM [5]?
A: Its inhibition at 10 µM is 44.1%.

Q: What about the inhibition at 10 µM [6] of the same compound?
A: The inhibition at 10 µM was 1.1%.

Q: And the inhibition at 10 µM [7]?
A: Its inhibition at 10 µM is 16.3%.

Q: What about the inhibition at 10 µM [8] of the same compound?
A: Its inhibition at 10 µM is 36.3%.

Q: And the inhibition at 10 µM [9]?
A: The inhibition at 10 µM was -4.9%.

Q: What about the inhibition at 10 µM [10] of the same compound?
A: The inhibition at 10 µM was 23%.

Q: And the inhibition at 10 µM [11]?
A: Its inhibition at 10 µM is -1.6%.

Q: And the inhibition at 10 µM [12]?
A: The inhibition at 10 µM was 16.8%.

Q: And the inhibition at 10 µM [13]?
A: The inhibition at 10 µM was 29.5%.

Q: And the inhibition at 10 µM [14]?
A: Its inhibition at 10 µM is 83.4%.

Q: And the inhibition at 10 µM [15]?
A: Its inhibition at 10 µM is 15.9%.

Q: And the inhibition at 10 µM [16]?
A: Its inhibition at 10 µM is 9.9%.

Q: What about the inhibition at 10 µM [17] of the same compound?
A: The inhibition at 10 µM was -6.5%.

Q: And the inhibition at 10 µM [18]?
A: Its inhibition at 10 µM is 1.8%.

Q: What about the inhibition at 10 µM [19] of the same compound?
A: The inhibition at 10 µM was 0.7%.

Q: What about the inhibition at 10 µM [20] of the same compound?
A: The inhibition at 10 µM was 1.4%.

Q: What about the inhibition at 10 µM [21] of the same compound?
A: The inhibition at 10 µM was 8.3%.

Q: And the inhibition at 10 µM [22]?
A: Its inhibition at 10 µM is 8.6%.

Q: And the inhibition at 10 µM [23]?
A: Its inhibition at 10 µM is 1.2%.

Q: And the inhibition at 10 µM [24]?
A: The inhibition at 10 µM was -6.5%.

Q: What about the inhibition at 10 µM [25] of the same compound?
A: The inhibition at 10 µM was 2.1%.

Q: And the inhibition at 10 µM [26]?
A: The inhibition at 10 µM was 3.5%.

Q: And the inhibition at 10 µM [27]?
A: Its inhibition at 10 µM is 29.2%.

Q: And the inhibition at 10 µM [28]?
A: The inhibition at 10 µM was -0.2%.

Q: And the inhibition at 10 µM [29]?
A: Its inhibition at 10 µM is 21.6%.

Q: And the inhibition at 10 µM [30]?
A: Its inhibition at 10 µM is 2.9%.

Q: What about the inhibition at 10 µM [31] of the same compound?
A: The inhibition at 10 µM was 39.2%.

Q: And the inhibition at 10 µM [32]?
A: Its inhibition at 10 µM is 14.9%.

Q: What about the inhibition at 10 µM [33] of the same compound?
A: The inhibition at 10 µM was -1.9%.

Q: And the inhibition at 10 µM [34]?
A: Its inhibition at 10 µM is 2.4%.

Q: What about the inhibition at 10 µM [35] of the same compound?
A: Its inhibition at 10 µM is -3.4%.

Q: What about the inhibition at 10 µM [36] of the same compound?
A: The inhibition at 10 µM was -1.2%.

Q: What about the inhibition at 10 µM [37] of the same compound?
A: The inhibition at 10 µM was 17.8%.
